The target in assay [1] is Acidic phospholipase A2 2 (Naja naja, UniProt P15445). Kind of assay: Inhibition of snake venom phospholipase A2 assessed as oxygen consumption for 3 mins.
For assay [2], the target named is Acidic phospholipase A2 2 (Naja naja) (UniProt P15445). Kind of assay: Inhibition of snake venom phospholipase A2 at 3.700 mM assessed as oxygen consumption for 3 mins.
The target is the same in assay [3]. Particulars: 5.800 mM.
Description: Inhibition of snake venom phospholipase A2 at 5.800 mM assessed as oxygen consumption for 3 mins
Assay [4] shares this target. Nature of the assay: Inhibition of snake venom phospholipase A2 at 1 mM assessed as oxygen consumption for 3 mins.

Sequence of Acidic phospholipase A2 2 (Naja naja) (P15445 whole entry): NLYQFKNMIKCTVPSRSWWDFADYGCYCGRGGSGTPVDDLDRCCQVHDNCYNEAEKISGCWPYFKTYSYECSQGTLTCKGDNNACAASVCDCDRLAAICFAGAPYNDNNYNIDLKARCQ
Sequence of Acidic phospholipase A2 2 (P15445 whole entry): as above

For orientation: IC50 means the concentration that inhibits the measured activity by half. In general, inhibition refers to how much of the control response was suppressed. On to `C=C(CC[C@@H](C(=O)O)[C@H]1[C@H](O)C[C@@]2(C)C3=C(CC[C@]12C)[C@@]1(C)CC[C@H](OC(C)=O)C(C)(C)[C@@H]1CC3)C(C)C` [PACHYMIC ACID], for which the IC50 in assay [1] came to 2900 µM. The inhibition in assay [2] is 66%.

For `CCN(CC)CCCC(C)Nc1c2ccc(Cl)cc2nc2ccc(OC)cc12` (stereo unspecified) [QUINACRINE], the IC50 in assay [1] turned out to be 2160 µM. For the same compound, in assay [3], the inhibition amounted to 85.5%.

As to `C=C(CC[C@@H](C(=O)O)[C@H]1[C@H](O)C[C@@]2(C)C3=CC[C@H]4C(C)(C)[C@@H](O)CC[C@]4(C)C3=CC[C@]12C)C(C)C` [DEHYDROTUMULOSIC ACID], the IC50 in assay [1] amounted to 845 µM. Further, the inhibition in assay [4] was found to be 58.6%.

Values taken from ChEMBL document CHEMBL1158290, “Two fungal lanostane derivatives as phospholipase A2 inhibitors” (J Nat Prod, 1996).
